Source: US7560468B2, “Substituted 1,4,8-triazaspiro[4,5]decan-2-one compounds” (Gruenenthal GmbH, priority 2004, dated 2009)

Key:
[1] = system: batrachotoxin (BTX) binding site of the sodium channel; assay: Affinity to the batrachotoxin (BTX) binding site of the sodium channel; conditions: rat cerebrocortex synaptosomes, [3H]-batrachotoxinin A20 α-benzoate 10 nM; test concentration not given
[2] = molecular target: T1, 5-HT transporter (Rattus norvegicus, UniProt P31652); assay: Inhibition of 5-HT uptake in synaptosomes; assay type: biochemical; conditions: for inhibition at 1 µM: read-out: Uptake_5-HT, rat, 1 μM, % inhibition
T1 construct: from tissue; host or cells: rat brain synaptosomes (marrow/medulla and pons), P2 fraction
T1 sequence (P31652 whole entry): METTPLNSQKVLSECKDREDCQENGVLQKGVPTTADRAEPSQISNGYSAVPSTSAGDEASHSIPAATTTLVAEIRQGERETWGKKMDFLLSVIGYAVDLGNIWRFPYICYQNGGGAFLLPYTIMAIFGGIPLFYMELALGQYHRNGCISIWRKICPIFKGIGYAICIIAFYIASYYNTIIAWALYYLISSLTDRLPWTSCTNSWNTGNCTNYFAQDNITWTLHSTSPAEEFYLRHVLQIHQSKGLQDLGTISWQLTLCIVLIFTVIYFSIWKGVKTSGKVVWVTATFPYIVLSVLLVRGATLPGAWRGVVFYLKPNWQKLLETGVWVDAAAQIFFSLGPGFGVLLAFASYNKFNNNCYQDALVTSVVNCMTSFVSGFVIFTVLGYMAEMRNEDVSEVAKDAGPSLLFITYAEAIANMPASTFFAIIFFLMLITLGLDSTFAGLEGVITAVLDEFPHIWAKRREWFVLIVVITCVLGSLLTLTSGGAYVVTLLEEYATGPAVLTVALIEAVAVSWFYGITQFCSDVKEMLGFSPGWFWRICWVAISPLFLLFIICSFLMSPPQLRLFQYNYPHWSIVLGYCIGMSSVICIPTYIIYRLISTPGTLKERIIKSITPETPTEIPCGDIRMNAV

SMILES	BTX Inhibition [1]	Uptake_5-HT, rat, 1 μM, % inhibition [2] [%]	inhibition at 1 µM [2] [%]
CCOC(=O)CN1C(=O)C(Cc2ccccc2)NC12CCN(S(=O)(=O)c1cccc(C)c1)CC2 (centres unmarked) [Example 63, Ethyl[3-benzyl-2-oxo-8-(toluol-3-sulfonyl)-1,4,8-triazaspiro[4,5]dec-1-yl]-acetate]	36	59	
CCOC(=O)CN1C(=O)C(Cc2ccccc2)NC12CCN(S(=O)(=O)c1ccccc1)CC2 (centres unmarked) [Example 66, Ethyl(8-benzolsulfonyl-3-benzyl-2-oxo-1,4,8-triazaspiro[4,5]dec-1-yl)acetate]	39	64	
CCCc1ccc(S(=O)(=O)N2CCC3(CC2)NC(Cc2ccccc2)C(=O)N3CC(=O)OCC)cc1 (centres unmarked) [Example 67, Ethyl[3-benzyl-2-oxo-8-(4-propylbenzolsulfonyl)-1,4,8-triazaspiro[4,5]dec-1-yl]-acetate]	40	64	
CCOC(=O)CN1C(=O)C(Cc2ccccc2)NC12CCN(S(=O)(=O)c1ccc(F)c(Cl)c1)CC2 (centres unmarked) [Example 69, Ethyl[3-benzyl-8-(3-chloro-4-fluorobenzolsulfonyl)-2-oxo-1,4,8-triazaspiro[4,5]dec-1-yl]-acetate]	73	62	
O=C1C(Cc2ccccc2)NC2(CCN(S(=O)(=O)c3ccccc3)CC2)N1Cc1ccccc1F (centres unmarked) [Example 71, 8-Benzolsulfonyl-3-benzyl-1-(2-fluorobenzyl)-1,4,8-triazaspiro[4,5]decan-2-one]	85	76	
CCOC(=O)CN1C(=O)C(Cc2ccccc2)NC12CCN(S(=O)(=O)c1c(C)cc(C)cc1C)CC2 (centres unmarked) [Example 72, Ethyl[3-benzyl-2-oxo-8-(2,4,6-trimethylbenzolsulfonyl)-1,4,8-triazaspiro[4,5]dec-1-yl]-acetate]	75	75	
CCOC(=O)CN1C(=O)C(Cc2ccccc2)NC12CCN(S(=O)(=O)c1cc(OC)ccc1OC)CC2 (centres unmarked) [Example 74, Ethyl[3-benzyl-8-(2,5-dimethoxy-benzolsulfonyl)-2-oxo-1,4,8-triazaspiro[4,5]dec-1-yl]-acetate]	30	74	
CSCCC1NC2(CCN(S(=O)(=O)N(C)C)CC2)N(Cc2ccc3ccccc3c2)C1=O (centres unmarked) [Example 75, 3-(2-Methylsulfanylethyl)-1-naphthalin-2-ylmethyl-2-oxo-1,4,8-triazaspiro[4,5]decan-8-sulfonic acid dimethylamide]	62		74
CC(C)C1NC2(CCN(S(=O)(=O)c3ccc4c(c3)CN(C(=O)C(F)(F)F)CC4)CC2)N(Cc2cccc(C#N)c2)C1=O (centres unmarked) [Example 77, 3-{3-Isopropyl-2-oxo-8-[2-(2,2,2-trifluoroacetyl)-1,2,3,4-tetrahydroisoquinolin-7-sulfonyl]-1,4,8-triazaspiro[4,5]dec-1-ylmethyl}-benzonitrile]	36		32
C=CCN1C(=O)C(CCSC)NC12CCN(S(=O)(=O)c1c(C)cc(OC)c(C)c1C)CC2 (centres unmarked) [Example 79, 1-Allyl-8-(4-methoxy-2,3,6-trimethylbenzolsulfonyl)-3-(2-methylsulfanylethyl)-1,4,8-triazaspiro[4,5]decan-2-one]	67	37	
CCOC(=O)CN1C(=O)C(Cc2ccccc2)NC12CCN(S(=O)(=O)c1ccccc1C(=O)OC)CC2 (centres unmarked) [Example 80, Methyl 2-(3-benzyl-1-ethoxycarbonylmethyl-2-oxo-1,4,8-triazaspiro[4,5]decan-8-sulfonyl)benzoate]	33		84
O=C1C(Cc2ccccc2)NC2(CCN(S(=O)(=O)c3ccccc3C(F)(F)F)CC2)N1Cc1ccccc1F (centres unmarked) [Example 81, 3-Benzyl-1-(2-fluorobenzyl)-8-(2-trifluoromethylbenzolsulfonyl)-1,4,8-triazaspiro[4,5]decan-2-one]	87	81	
CC(C)CC1NC2(CCN(C(=S)Nc3ccc(F)cc3)CC2)NC1=O (centres unmarked) [Example 112, 2-Isobutyl-3-oxo-1,4,8-triazaspiro[4,5]decan-8-thiocarboxylic acid (4-fluorobenzol)amide]	30	31	
CCCCN1C(=O)C(C(C)C)NC12CCN(C(=S)Nc1ccccc1)CC2 (centres unmarked) [Example 116, 1-Butyl-3-isopropyl-2-oxo-1,4,8-triazaspiro[4,5]decan-8-thiocarboxylic acid benzolamide]	30	40	
CCCCN1C(=O)C(C(C)C)NC12CCN(C(=S)Nc1cc(Cl)ccc1Cl)CC2 (centres unmarked) [Example 117, 1-Butyl-3-isopropyl-2-oxo-1,4,8-triazaspiro[4,5]decan-8-thiocarboxylic acid (2,5-dichlorobenzol)amide]	44	33	
CCCCN1C(=O)C(CCSC)NC12CCN(C(=S)Nc1cc(Cl)ccc1Cl)CC2 (centres unmarked) [Example 120, 1-Butyl-3-(2-methylsulfanylethyl)-2-oxo-1,4,8-triazaspiro[4,5]decan-8-thiocarboxylic acid (2,5-dichlorobenzol)amide]	49	58	
COCCNC(=S)N1CCC2(CC1)NC(CCSC)C(=O)N2Cc1ccc2ccccc2c1 (centres unmarked) [Example 121, 3-(2-Methylsulfanylethyl)-1-naphthalin-2-ylmethyl-2-oxo-1,4,8-triazaspiro[4,5]decan-8-thiocarboxylic acid (2-methoxy-ethyl)amide]	47		39
CCCCN1C(=O)C(C(C)C)NC12CCN(C(=S)Nc1ccccc1F)CC2 (centres unmarked) [Example 122, 1-Butyl-3-isopropyl-2-oxo-1,4,8-triazaspiro[4,5]decan-8-thiocarboxylic acid (2-fluorobenzol)amide]	35	32	
CCCCN1C(=O)C(C(C)C)NC12CCN(C(=S)Nc1cccc(C)c1)CC2 (centres unmarked) [Example 124, 1-Butyl-3-isopropyl-2-oxo-1,4,8-triazaspiro[4,5]decan-8-thiocarboxylic acid m-tolylamide]	41		47
C=CCN1C(=O)C(C(C)C)NC12CCN(C(=S)Nc1cc(F)ccc1F)CC2 (centres unmarked) [Example 128, 1-Allyl-3-isopropyl-2-oxo-1,4,8-triazaspiro[4,5]decan-8-thiocarboxylic acid (2,5-difluorobenzol)amide]	33	57	
C=CCNC(=S)N1CCC2(CC1)NC(CCSC)C(=O)N2Cc1ccccc1C#N (centres unmarked) [Example 129, 1-(2-Cyanobenzyl)-3-(2-methylsulfanylethyl)-2-oxo-1,4,8-triazaspiro[4,5]decan-8-thiocarboxylic acid allylamide]	36		41
CCCCN1C(=O)C(CCSC)NC12CCN(C(=S)NCC1CCCCC1)CC2 (centres unmarked) [Example 132, 1-Butyl-3-(2-methylsulfanylethyl)-2-oxo-1,4,8-triazaspiro[4,5]decan-8-thiocarboxylic acid cyclohexylmethylamide]	71		30
